Laboratory results from article PMC10213797 (Acta Pharmaceutica Sinica. B, 2023).

Key:
Aβ1–42 = Aβ1–42 (Homo sapiens, UniProt P05067); assay: Aβ1–42 aggregation inhibition, ThT fluorescence assay; assay type: biochemical
BBB-PAMPA permeability = settings: PAMPA, pH 7.4, BBB–PAMPA permeability Papp (mean ± SD), pH 7.4, 4 h, 25 °C, brain sink buffer
hBChE [1] = target: T1, hBChE (Homo sapiens, UniProt P06276); assay: hBChE inhibition kinetics, progress curves of BTCI hydrolysis; assay type: biochemical; settings: 50 μmol/L BTCI, 25 °C, pH 7.0
T1 sequence (P06276 29-602): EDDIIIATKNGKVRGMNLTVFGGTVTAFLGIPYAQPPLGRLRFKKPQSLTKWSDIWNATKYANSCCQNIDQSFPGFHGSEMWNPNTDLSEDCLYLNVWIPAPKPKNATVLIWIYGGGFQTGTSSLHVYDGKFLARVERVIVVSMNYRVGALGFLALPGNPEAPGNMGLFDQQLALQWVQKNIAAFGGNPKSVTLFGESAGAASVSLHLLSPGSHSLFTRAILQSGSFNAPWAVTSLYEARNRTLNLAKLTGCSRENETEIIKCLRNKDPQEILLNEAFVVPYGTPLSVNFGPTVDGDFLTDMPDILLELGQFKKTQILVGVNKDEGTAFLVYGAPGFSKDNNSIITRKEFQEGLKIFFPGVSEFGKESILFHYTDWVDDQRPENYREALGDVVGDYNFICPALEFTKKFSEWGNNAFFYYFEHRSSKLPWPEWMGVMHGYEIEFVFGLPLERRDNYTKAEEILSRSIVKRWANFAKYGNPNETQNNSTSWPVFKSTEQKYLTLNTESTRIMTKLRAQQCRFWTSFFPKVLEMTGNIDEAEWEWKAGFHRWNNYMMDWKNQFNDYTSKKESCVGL

hBChE [2] = target: T1, hBChE; assay: hBChE inhibition, Ellman's method; assay type: biochemical; settings: hBChE IC50, abstract
SH-SY5Y cells = assay: Metabolic activity, MTS assay, SH-SY5Y; assay type: cell-based; settings: 24 h, 1–100 μmol/L
LPS-activated BV2 cells [3] = assay: Neuroprotection in LPS-induced BV2 neuroinflammation model, 7-AAD; assay type: cell-based; settings: BV2, LPS 1 μg/mL, 19 at 0.5–5 μmol/L
[4] = Metal chelation, UV–Vis spectra and Cu2+ titration; assay type: physicochemical; settings: 30 μmol/L QN, equimolar metal ion, HEPES pH 7.4
[5] = target: T2, purified recombinant hMAO-B (Homo sapiens, UniProt P27338); assay: hMAO-B steady-state kinetics, direct MMTP assay; assay type: biochemical; settings: MMTP substrate
T2 sequence (P27338 1-520): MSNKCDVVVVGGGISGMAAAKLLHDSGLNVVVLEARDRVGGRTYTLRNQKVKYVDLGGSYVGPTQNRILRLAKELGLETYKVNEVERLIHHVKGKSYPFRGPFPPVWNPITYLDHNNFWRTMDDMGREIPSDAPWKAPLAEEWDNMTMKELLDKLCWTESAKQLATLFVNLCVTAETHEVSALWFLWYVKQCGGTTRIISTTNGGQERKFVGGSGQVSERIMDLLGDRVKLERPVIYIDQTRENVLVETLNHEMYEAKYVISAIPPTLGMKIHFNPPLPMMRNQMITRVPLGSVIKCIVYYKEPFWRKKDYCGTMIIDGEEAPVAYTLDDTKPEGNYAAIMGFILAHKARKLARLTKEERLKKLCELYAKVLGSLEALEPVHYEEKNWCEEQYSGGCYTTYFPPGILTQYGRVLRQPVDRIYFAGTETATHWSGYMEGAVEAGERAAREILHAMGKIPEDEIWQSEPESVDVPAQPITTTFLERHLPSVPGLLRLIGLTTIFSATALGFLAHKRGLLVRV

[6] = system: SH-SY5Y cells treated with 6-OHDA; assay: Neuroprotection against 6-OHDA toxicity, 7-AAD; assay type: cell-based; settings: 100 μmol/L 6-OHDA
[7] = DPPH radical-scavenging assay; settings: read-out: Radical-scavenging DPPH assay EC50; means ± SEM (n = 2, in triplicates)
microglial BV2 cells = assay: Cytotoxicity, 7-AAD flow cytometry, BV2; assay type: cell-based; settings: at 10 μmol/L; sentence does not say which of SH-SY5Y/BV2
LPS-activated BV2 cells [8] = assay: Nitrite quantification, Griess assay, LPS-stimulated BV2; assay type: cell-based; settings: BV2, LPS 1 μg/mL, 19 at 5 μmol/L
mice = assay: Rotarod test; assay type: in vivo; settings: 30 mg/kg i.p.; 6, 18, and 24 rpm
HepG2 cells = assay: Metabolic activity, MTS assay, HepG2; assay type: cell-based; settings: HepG2, 24 h, 1–100 μmol/L
[9] = system: APPSwe/PS1δE9 double transgenic mice; assay: Aβ plaque load after chronic treatment, Thioflavin S staining; settings: male and female mice at 10 months of age, 0.62 mg/kg/day, 4-month treatment

Sequence of Aβ1–42 (P05067 672-713): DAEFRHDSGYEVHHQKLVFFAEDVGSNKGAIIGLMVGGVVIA

Structure (SMILES): [O-]/[N+](=C\c1ccc2cccc(O)c2n1)Cc1ccccc1 [QN 19, (Z)-N-Benzyl-1-(8-hydroxyquinolin-2-yl)methanimine oxide]
- Inhibition of Aβ1–42 aggregation (Aβ1–42; 10 μmol/L ligand and 1.5 μmol/L Aβ1–42, mean ± SD (n ≥ 3)): n.i. ^e (n.i., no inhibition <20%)
- inhibition of self-induced aggregation of Aβ1–42 (in words) (Aβ1–42; ThT fluorescence assay): inactive
- Papp at 4 h, 100 μmol/L (BBB-PAMPA permeability): ≥ 37.2 ×10⁻⁶ cm/s
- Kii, dissociation constant for binding of the second molecule to hBChE (hBChE [1]): 14.5 nmol/L
- IC50 (hBChE [2]): 0.00106 ± 0.00031 µM
- concentrations at which metabolic activity is reduced (MTS) (SH-SY5Y cells): higher than 10 μmol/L
- neuroprotective effects on cell viability, LPS model (LPS-activated BV2 cells [3]): No neuroprotective effects on cell viability
- chelation of Ca^2+ and Mg^2+ [4]: did not chelate
- complexes with Zn^2+, Cu^2+, Al^3+, Fe^2+ and Fe^3+ [4]: generated corresponding complexes
- mode of hMAO-B inhibition (best fit) [5]: competitive inhibition model
- cell viability under 6-OHDA co-treatment ([6]; 19 at 0.5 and 1 μmol/L): increased cell viability
- neuroprotective activity under 6-OHDA co-treatment ([6]; 19 at 2.5 and 5 μmol/L): neuroprotective activity was lost
- EC50 [7]: 126 ± 0.1 µM
- cell viability (7-AAD) (microglial BV2 cells): reduced cell viability to a significant extent
- LPS-induced nitrite concentration (LPS-activated BV2 cells [8]): reduced LPS-induced increase in nitrite concentration
- motor impairments in the rotarod test (mice): did not result in any motor impairments
- concentrations at which metabolic activity is reduced (MTS) (HepG2 cells): higher than 10 μmol/L
- effect on Aβ plaques of chronic treatment started later [9]: inefficient
